Patent US10874743B2, “IRAK degraders and uses thereof” (Kymera Therapeutics, Inc., priority 2017, dated 2020)

Biological target: T1, IRAK4 (Homo sapiens, UniProt Q9NWZ3)
T1 sequence (Q9NWZ3 1-460): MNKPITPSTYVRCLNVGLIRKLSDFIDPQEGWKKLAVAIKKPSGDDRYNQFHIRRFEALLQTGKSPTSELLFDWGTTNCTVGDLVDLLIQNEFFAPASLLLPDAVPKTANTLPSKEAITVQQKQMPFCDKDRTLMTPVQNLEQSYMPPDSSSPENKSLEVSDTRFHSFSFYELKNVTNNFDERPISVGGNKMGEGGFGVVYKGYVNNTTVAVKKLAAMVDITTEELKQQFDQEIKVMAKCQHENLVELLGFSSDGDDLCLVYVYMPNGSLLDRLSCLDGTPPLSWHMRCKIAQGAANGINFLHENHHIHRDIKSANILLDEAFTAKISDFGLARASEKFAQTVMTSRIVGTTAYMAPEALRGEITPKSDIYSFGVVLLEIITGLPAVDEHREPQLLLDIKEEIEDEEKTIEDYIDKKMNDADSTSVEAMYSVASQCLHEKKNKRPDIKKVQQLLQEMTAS
Assay: OCI-LY-10 MSD assay for IRAK4 DC50
Type: cell-based
Parameters: endogenous in cells; host or cells: OCI-LY10
Conditions: OCI-LY10 cells, 4 hr incubation, concentration required to degrade 50% of protein
Procedure: A MSD assay was run to determine the concentration of compound required to degrade 50% of protein (DC50).
Day 1 • Compounds were reconstituted to 10 mM in stock solutions. The stock solutions were diluted to 5 mM and 45 μL of each dilution was transferred to a 384 pp-plate. A 3 fold, 8-point serial dilution was performed by transferring 15 μL of compound into 30 μL DMSO using Janus. • 20 nL of each compounds were added into each well of a 96-well plate (Corning3799). • OCI-Ly10 cells were seeded into the 96-well plate at 3.0*10e^5 cells/100 μL/well. • The cell plate was shaken at 720 rpm for 5 min and incubated for 4 hr. • The 100 μL of cells were transferred into the 96-PCR plate and spun down at high speed for 5 mins. • The supernatant was discarded and 100 μL of RIPA lysis buffer with proteinase inhibitors was added per well. The plate was then sealed and shaken at 600 rpm and 4° C. for about 20 min. • The plate was then spun down at high speed (about 3200 g) for 30 min and then frozen in a −80° C. fridge. • A bare MSD plate (L15XA-3) was coated with 2 μg/mL of capture antibody (mouse Anti-IRAK4 antibody [2H9], ab119942) in PBS to 40 μL/well and incubated overnight at 4° C.
Day 2 • The MSD coated plate was washed 3× (150 μL/well) with 1×TBST (CST #9997S). • The MSD plate was then blocked with 150 μL of blocking buffer [3% Blocker A (MSD, R93BA-4) in TBST]/well and shaken for 1 hr at R^† and 600 rpm. • The MSD plate was washed 3× (150 μL/well) with 1×TBST. The sample RIPA lysates were then added to the MSD plate (50 μL/well) and shaken for 1 hr at R^† and 600 rpm. • The MSD plate was washed 3× (150 μL/well) with 1×TBST and the primary detection antibody (Rabbit Anti-IRAK4 antibody [Y279], ab32511) was added to a final concentration of 1 μg/ml with 25 μL/well. The plate was then shaken for 1 hr at RT and 600 rpm. • The MSD plate was washed 3× (150 μL/well) with 1×TBST and the secondary detection antibody, SULFO-TAG anti-species antibody (Anti Rabbit Antibody (R32AB-5) MSD, R32AB-1) was added to a volume of 25 μL/well at a final concentration of 1 jag/ml. The plate was then shaken for 1 hr at RT and 600 rpm. • The MSD plate was then washed 3× (150 μL/well) with 1×TBST. • lx MSD reading buffer was then added (150 μL/well) and the plate was diluted with 4× water. (MSD, R92TC-2) • The MSD instrument was then read.
Data Analysis • The remaining activity was calculated following the formula below:
Calculate • The DC50 was calculated by fitting the Curve using Xlfit (v5.3.1.3), equation 201: Y=Bottom+(Top−Bottom)/(1+10^((Log IC50−X)*HillSlope))
OCI-LY-10 DC50 results. The letter codes for IRAK4 DC50 indicate the concentration of compound required to degrade 50% of protein: A (<0.05 μM), B (0.05-0.1 μM), C (0.1-0.5 μM), D (0.5-1.0 μM), and E (>1.0 μM).

SMILES	DC50 [nM]
Cc1ncsc1-c1ccc(CNC(=O)[C@@H]2C[C@@H](O)CN2C(=O)[C@@H](NC(=O)COCCOCCOCCNCc2ccc(-n3cc(NC(=O)c4coc(-c5ccnc(NCC(F)(F)F)c5)n4)c(C(N)=O)n3)cc2)C(C)(C)C)cc1 [I-414]	100 to 500
Cn1cc(NC(=O)c2coc(-c3ccnc(NCC(F)(F)F)c3)n2)c(C(=O)NCCCOCCCOCCCNc2cccc3c2C(=O)N(C2CCC(=O)NC2=O)C3=O)n1 (centres unmarked) [I-294]	> 1000
Cc1ncsc1-c1ccc(CNC(=O)[C@@H]2C[C@@H](O)CN2C(=O)[C@@H](NCCOCCOCCOCCNCc2nn(C)cc2NC(=O)c2coc(-c3ccnc(NCC(F)(F)F)c3)n2)C(C)(C)C)cc1 [I-413]	> 1000
Cn1cc(NC(=O)c2coc(-c3ccnc(NCC(F)(F)F)c3)n2)c(C(=O)NCCOCCOCCOCCNc2cccc3c2C(=O)N(C2CCC(=O)NC2=O)C3=O)n1 (centres unmarked) [I-292]	> 1000
Cn1c(=O)n(C2CCC(=O)NC2=O)c2ccc(CCCOCCCNCc3ccc(-n4cc(NC(=O)c5coc(-c6ccnc(NCC7CC7)c6)n5)c(C(F)F)n4)cc3)cc21 (centres unmarked) [I-405]	< 50
Cn1c(=O)n(C2CCC(=O)NC2=O)c2cccc(CCCOCCOCCNC(=O)c3ccc(-n4cc(NC(=O)c5coc(-c6ccnc(NCC7CC7)c6)n5)c(C(F)F)n4)cc3)c21 (centres unmarked) [I-253]	< 50
O=C1CCC(N2C(=O)c3cccc(N4CCN(CCOCCOCCOCCNCc5ccc(-n6cc(NC(=O)c7coc(-c8ccnc(NCC9CC9)c8)n7)c(C(F)F)n6)cc5)CC4)c3C2=O)C(=O)N1 (centres unmarked) [I-391]	100 to 500
Cn1cc(NC(=O)c2coc(-c3ccnc(NCC(F)(F)F)c3)n2)c(C(=O)NCCOCCOCCOCCOCCOCCNc2cccc3c2C(=O)N(C2CCC(=O)NC2=O)C3=O)n1 (centres unmarked) [I-214]	> 1000
Cn1c(=O)n(C2CCC(=O)NC2=O)c2ccc(CCCOCCCOCCCNCc3ccc(-n4cc(NC(=O)c5coc(-c6ccnc(NCC7CC7)c6)n5)c(C(F)F)n4)cc3)cc21 (centres unmarked) [I-407]	< 50
O=C1CCC(N2C(=O)c3cccc(N4CCN(CCOCCNCc5ccc(-n6cc(NC(=O)c7coc(-c8ccnc(NCC9CC9)c8)n7)c(C(F)F)n6)cc5)CC4)c3C2=O)C(=O)N1 (centres unmarked) [I-390]	100 to 500
O=C1CCC(n2c(=O)n(CCOCCOCCNC(=O)c3ccc(-n4cc(NC(=O)c5coc(-c6ccnc(NCC7CC7)c6)n5)c(C(F)F)n4)cc3)c3ccccc32)C(=O)N1 (centres unmarked) [I-251]	< 50
Cn1cc(NC(=O)c2coc(-c3ccncc3)n2)c(C(=O)NCCOCCOCCOCCNc2cccc3c2C(=O)N(C2CCC(=O)NC2=O)C3=O)n1 (centres unmarked) [I-301]	> 1000
Cn1c(=O)n(C2CCC(=O)NC2=O)c2cccc(CCCOCCOCCNC(=O)c3ccc(-n4cc(NC(=O)c5coc(-c6ccnc(NCC(F)(F)F)c6)n5)c(C(F)F)n4)cc3)c21 (centres unmarked) [I-280]	< 50
NC(=O)c1nn(-c2ccc(C(=O)NCCOCCCOCCNc3cccc4c3C(=O)N(C3CCC(=O)NC3=O)C4=O)cc2)cc1NC(=O)c1coc(-c2ccnc(NCC3CC3)c2)n1 (centres unmarked) [I-213]	< 50
Cn1c(=O)n(C2CCC(=O)NC2=O)c2ccc(CCCCOCCCCNCc3ccc(-n4cc(NC(=O)c5cnn6ccc(N7CCNCC7)nc56)c(C(F)F)n4)cc3)cc21 (centres unmarked) [I-441, N-[3-(difluoromethyl)-1-[4-[[4-[4-[1-(2,6-dioxo-3-piperidyl)-3-methyl-2-oxo-benzimidazol-5-yl]butoxy]butylamino]methyl]phenyl]pyrazol-4-yl]-5-piperazin-1-yl-pyrazolo[1,5-a]pyrimidine-3-carboxamide]	> 1000
Cn1c(=O)n(C2CCC(=O)NC2=O)c2ccc(CCCOCCC(=O)N3CCN(C4CCC(Nc5ncnn6ccc(C7CCOCC7)c56)CC4)CC3)cc21 (centres unmarked) [I-437, 3-[3-Methyl-2-oxo-5-[3-[3-oxo-3-[4-[4-[(5-tetrahydropyran-4-ylpyrrolo[2,1-f][1,2,4]triazin-4-yl)amino]cyclohexyl]piperazin-1-yl]propoxy]propyl]benzimidazol-1-yl]piperidine-2,6-dione]	> 1000
O=C1CCC(N2C(=O)c3ccc(NC4CCN(CCOCCNC(=O)c5ccc(-n6cc(NC(=O)c7coc(-c8ccnc(NCC9CC9)c8)n7)c(C(F)F)n6)cc5)CC4)cc3C2=O)C(=O)N1 (centres unmarked) [I-271]	100 to 500
O=C1CCC(N2C(=O)c3cccc(N4CCN(CCOCCNC(=O)c5ccc(-n6cc(NC(=O)c7coc(-c8ccnc(NCC9CC9)c8)n7)c(C(F)F)n6)cc5)CC4)c3C2=O)C(=O)N1 (centres unmarked) [I-274]	100 to 500
Cn1c(=O)n(C2CCC(=O)NC2=O)c2cccc(CCCOCCOCCOCCOCCN[C@H]3CC[C@H](Nc4ncnc5[nH]cc(C6CCOCC6)c45)CC3)c21 (some centres unmarked) [I-442, 3-[3-Methyl-2-oxo-4-[3-[2-[2-[2-[2-[[4-[(5-tetrahydropyran-4-yl-7H-pyrrolo[2,3-d]pyrimidin-4-yl)amino]cyclohexyl]amino]ethoxy]ethoxy]ethoxy]ethoxy]propyl]benzimidazol-1-yl]piperidine-2,6-dione]	> 1000
CN[C@@H](C)C(=O)N[C@H](C(=O)N1CCC[C@H]1c1nc(C(=O)c2cccc(OCCOCCOCCOCCNCc3ccc(-n4cc(NC(=O)c5coc(-c6ccnc(NCC7CC7)c6)n5)c(C(F)F)n4)cc3)c2)cs1)C1CCCCC1 [I-554]	> 1000
CC(C)(C)[C@H](NC(=O)COCCOCCOCCNc1cccc2c1C(=O)N(C1CCC(=O)NC1=O)C2=O)C(=O)N1C[C@H](OC(=O)[C@@H]2CCCN2)C[C@H]1C(=O)NCc1ccc(-n2cc(NC(=O)c3coc(-c4ccnc(NCC5CC5)c4)n3)c(C(F)F)n2)cc1 (stereo partly drawn) [I-286, [(3R,5S)-5-[[4-[4-[[2-[2-(cyclopropylmethylamino)-4-pyridyl]oxazole-4-carbonyl]amino]-3-(difluoromethyl)pyrazol-1-yl]phenyl]methylcarbamoyl]-1-[(2S)-2-[[2-[2-[2-[2-[[2-(2,6-dioxo-3-piperidyl)-1,3-dioxo-isoindolin-4-yl]amino]ethoxy]ethoxy]ethoxy]acetyl]amino]-3,3-dimethyl-butanoyl]pyrrolidin-3-yl](2S)-pyrrolidine-2-carboxylate]	> 1000
Cn1cc(NC(=O)c2coc(-c3cccnc3NCCOCCOCCOCCNc3cccc4c3C(=O)N(C3CCC(=O)NC3=O)C4=O)n2)c(C(F)F)n1 (centres unmarked) [I-432, N-[3-(difluoromethyl)-1-methyl-pyrazol-4-yl]-2-[2-[2-[2-[2-[2-[[2-(2,6-dioxo-3-piperidyl)-1,3-dioxo-isoindolin-4-yl]amino]ethoxy]ethoxy]ethoxy]ethylamino]-3-pyridyl]oxazole-4-carboxamide]	> 1000
O=C1CCC(N2C(=O)c3cccc(NCCOCCOCCNC(=O)c4ccc(-n5cc(NC(=O)c6coc(-c7ccnc(NCC(F)(F)F)c7)n6)c(N6CCN(CCO)C6=O)n5)cc4)c3C2=O)C(=O)N1 (centres unmarked) [I-428]	< 50
Cc1ncsc1-c1ccc(CNC(=O)[C@@H]2C[C@@H](O)CN2C(=O)[C@@H](NCCOCCOCCOCCNCc2ccc(-n3cc(NC(=O)c4coc(-c5ccnc(NCC(F)(F)F)c5)n4)c(C(N)=O)n3)cc2)C(C)(C)C)cc1 [I-415]	> 1000
Cn1c(=O)n(C2CCC(=O)NC2=O)c2cccc(CCCOCCOCCNC3(c4ccc(-n5cc(NC(=O)c6coc(-c7ccnc(NCC8CC8)c7)n6)c(C(F)F)n5)cc4)CC3)c21 (centres unmarked) [I-403]	50 to 100
Cc1ncsc1-c1ccc(CNC(=O)[C@@H]2C[C@@H](O)CN2C(=O)[C@@H](NC(=O)COCCOCCOCCOCCNC(=O)c2nn(C)cc2NC(=O)c2coc(-c3ccnc(NCC(F)(F)F)c3)n2)C(C)(C)C)cc1 [I-299]	> 1000
